The values below come from PMC7901654, “Bioisosteric Discovery of NPA101.3, a Second-Generation RET/VEGFR2 Inhibitor Optimized for Single-Agent Polypharmacology” (Journal of Medicinal Chemistry, 2020).

Assay [1] deals with T1, human VEGFR2 (Homo sapiens, UniProt P35968).
T1 construct: expressed in transfected cells; host or cells: HEK293, transient transfection
Kind of assay: Ligand-induced VEGFR2 autophosphorylation in transfected HEK293 cells. It is filed as cell-based. The following applies: 2 h, VEGFA 100 ng/mL. How it is done:
Fibroblasts transfected with RET/C634R were treated with increasing doses of NPA101.3, ranging from 0.1 to 10.0 nM. RET autophosphorylation was assessed by Western blotting using two different antibodies that can recognize phosphorylated Y905, located in the RET kinase activation loop, or Y1062, a multidocking site involved in RET downstream signaling.[41]
Figure 4 NPA101.3-mediated inhibition of phosphorylation and signaling of oncogenic RET mutants and VEGFR2 in intact cells. Serum-starved RAT1 cells exogenously expressing the (A and B) indicated RET point mutants or (C) NIH3T3 cells exogenously expressing the indicated RET rearranged mutants were treated for 2 h with the indicated concentrations of the compound. Total cell lysates (50 μg) were subjected to immunoblotting with anti-phospho-Y1062 (αp1062) and anti-phospho-Y905 (αp905) RET antibodies. The blots were normalized using the anti-RET (αRET) antibody. (D) HEK293 cells were transiently transfected with human VEGFR2; 36 h after transfection, cells were serum starved for 12 h. The indicated doses of the compound or vehicle (NT) were added for 2 h, and then VEGFA (100 ng/mL) stimulation was applied for 15 min. […]
Protein lysates were prepared according to standard procedures. […] Immune complexes were detected with the enhanced chemiluminescence kit (Amersham Pharmacia Biotech, Little Chalfont, U.K.). […]

Assay [2] concerns the target T2, MLK2 (Homo sapiens, UniProt Q02779).
T2 construct: purchased DiscoveRx KINOMEscan (TRKA and CSF1R IC50 enzymes from Invitrogen)
Kind of assay: KinomeScan panel screen. Type of assay: binding. The note with it: MLK2, 100 nM; read-out: Percent Control.

The target of assay [3] is T3, RPS6KA4(Kin.Dom.2-C-terminal) (Homo sapiens, UniProt O75676).
T3 construct: RPS6KA4(Kin.Dom.2-C-terminal); purchased DiscoveRx KINOMEscan (TRKA and CSF1R IC50 enzymes from Invitrogen)
The experiment in a line: KinomeScan panel screen. The note with it: 100 nM, read-out: Percent Control. Type of assay: binding.

Assay [4] concerns the target T4, ULK2 (Homo sapiens, UniProt Q8IYT8).
T4 construct: purchased DiscoverX (outsourced KINOMEscan)
Kind of assay: KinomeScan panel screen. The following applies: ULK2, 100 nM; read-out: Percent Control. It is filed as binding.

The structures appear in SMILES notation.

T1 sequence (P35968 20-1356): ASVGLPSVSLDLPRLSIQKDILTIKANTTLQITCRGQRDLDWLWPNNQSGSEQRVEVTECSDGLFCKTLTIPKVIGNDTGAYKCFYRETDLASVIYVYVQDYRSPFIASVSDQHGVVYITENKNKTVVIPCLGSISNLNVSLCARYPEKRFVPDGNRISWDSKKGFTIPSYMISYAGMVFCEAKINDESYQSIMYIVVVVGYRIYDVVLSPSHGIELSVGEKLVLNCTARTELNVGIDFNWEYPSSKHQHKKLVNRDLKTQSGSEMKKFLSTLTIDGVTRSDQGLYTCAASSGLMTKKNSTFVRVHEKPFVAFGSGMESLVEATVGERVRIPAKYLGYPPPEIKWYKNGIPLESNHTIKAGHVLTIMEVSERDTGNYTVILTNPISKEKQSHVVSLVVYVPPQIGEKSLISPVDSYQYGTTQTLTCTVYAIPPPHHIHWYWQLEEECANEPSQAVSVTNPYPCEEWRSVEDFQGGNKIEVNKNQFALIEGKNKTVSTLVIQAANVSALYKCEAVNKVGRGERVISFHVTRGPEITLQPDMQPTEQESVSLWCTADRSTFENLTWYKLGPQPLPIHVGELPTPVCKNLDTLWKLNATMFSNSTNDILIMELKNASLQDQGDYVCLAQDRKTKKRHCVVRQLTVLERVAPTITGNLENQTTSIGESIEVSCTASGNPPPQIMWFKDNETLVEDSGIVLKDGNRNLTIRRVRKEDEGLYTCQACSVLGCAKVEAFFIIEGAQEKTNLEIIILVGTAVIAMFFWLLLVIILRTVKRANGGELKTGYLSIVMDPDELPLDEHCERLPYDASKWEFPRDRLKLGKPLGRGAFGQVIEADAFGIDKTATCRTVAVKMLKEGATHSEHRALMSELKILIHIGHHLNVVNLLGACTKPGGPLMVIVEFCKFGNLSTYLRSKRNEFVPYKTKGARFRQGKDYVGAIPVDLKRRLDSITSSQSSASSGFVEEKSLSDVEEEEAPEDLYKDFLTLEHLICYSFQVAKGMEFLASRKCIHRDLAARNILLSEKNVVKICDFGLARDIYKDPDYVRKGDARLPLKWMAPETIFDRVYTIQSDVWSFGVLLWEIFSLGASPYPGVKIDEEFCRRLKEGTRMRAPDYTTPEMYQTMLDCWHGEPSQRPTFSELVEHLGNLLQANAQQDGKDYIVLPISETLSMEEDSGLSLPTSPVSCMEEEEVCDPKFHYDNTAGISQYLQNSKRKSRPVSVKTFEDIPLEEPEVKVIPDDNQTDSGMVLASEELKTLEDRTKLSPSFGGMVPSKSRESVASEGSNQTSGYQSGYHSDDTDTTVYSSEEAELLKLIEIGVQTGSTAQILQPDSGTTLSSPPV
T4 sequence (Q8IYT8 whole entry): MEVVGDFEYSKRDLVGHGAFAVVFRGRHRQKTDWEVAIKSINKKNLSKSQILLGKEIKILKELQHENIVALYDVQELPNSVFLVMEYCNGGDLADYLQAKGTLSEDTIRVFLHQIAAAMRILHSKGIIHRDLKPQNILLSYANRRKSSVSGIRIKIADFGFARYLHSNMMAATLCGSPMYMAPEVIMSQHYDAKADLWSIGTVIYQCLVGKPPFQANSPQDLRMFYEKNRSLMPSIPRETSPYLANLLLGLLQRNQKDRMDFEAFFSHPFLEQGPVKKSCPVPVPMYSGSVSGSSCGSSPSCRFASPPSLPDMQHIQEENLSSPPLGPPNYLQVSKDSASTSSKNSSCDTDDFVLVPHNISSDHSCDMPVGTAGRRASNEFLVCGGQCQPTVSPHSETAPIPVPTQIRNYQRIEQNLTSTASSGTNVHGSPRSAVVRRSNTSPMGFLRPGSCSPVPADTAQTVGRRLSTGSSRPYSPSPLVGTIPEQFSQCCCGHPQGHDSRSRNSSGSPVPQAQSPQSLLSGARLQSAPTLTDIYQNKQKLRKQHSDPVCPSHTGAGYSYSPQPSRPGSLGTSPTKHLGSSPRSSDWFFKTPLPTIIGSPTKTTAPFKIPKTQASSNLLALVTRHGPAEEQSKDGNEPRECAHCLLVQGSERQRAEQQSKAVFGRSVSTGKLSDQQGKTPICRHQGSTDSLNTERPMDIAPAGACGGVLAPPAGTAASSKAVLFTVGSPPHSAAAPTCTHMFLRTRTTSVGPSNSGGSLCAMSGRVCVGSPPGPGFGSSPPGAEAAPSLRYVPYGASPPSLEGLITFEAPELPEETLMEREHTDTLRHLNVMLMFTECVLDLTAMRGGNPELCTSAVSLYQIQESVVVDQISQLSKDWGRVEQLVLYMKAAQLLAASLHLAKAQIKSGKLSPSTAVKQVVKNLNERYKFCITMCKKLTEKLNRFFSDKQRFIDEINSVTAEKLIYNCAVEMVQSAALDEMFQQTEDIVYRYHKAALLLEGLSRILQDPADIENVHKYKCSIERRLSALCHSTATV
T3 sequence (O75676 411-674 limits assumed): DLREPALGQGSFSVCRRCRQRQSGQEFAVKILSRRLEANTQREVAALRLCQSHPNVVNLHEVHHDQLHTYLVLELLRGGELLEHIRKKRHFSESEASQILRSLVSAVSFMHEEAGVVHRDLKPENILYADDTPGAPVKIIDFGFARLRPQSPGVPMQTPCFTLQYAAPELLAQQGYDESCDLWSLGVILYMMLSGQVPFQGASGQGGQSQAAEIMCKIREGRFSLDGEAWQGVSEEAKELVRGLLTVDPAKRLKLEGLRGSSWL
T2 sequence (Q02779 whole entry): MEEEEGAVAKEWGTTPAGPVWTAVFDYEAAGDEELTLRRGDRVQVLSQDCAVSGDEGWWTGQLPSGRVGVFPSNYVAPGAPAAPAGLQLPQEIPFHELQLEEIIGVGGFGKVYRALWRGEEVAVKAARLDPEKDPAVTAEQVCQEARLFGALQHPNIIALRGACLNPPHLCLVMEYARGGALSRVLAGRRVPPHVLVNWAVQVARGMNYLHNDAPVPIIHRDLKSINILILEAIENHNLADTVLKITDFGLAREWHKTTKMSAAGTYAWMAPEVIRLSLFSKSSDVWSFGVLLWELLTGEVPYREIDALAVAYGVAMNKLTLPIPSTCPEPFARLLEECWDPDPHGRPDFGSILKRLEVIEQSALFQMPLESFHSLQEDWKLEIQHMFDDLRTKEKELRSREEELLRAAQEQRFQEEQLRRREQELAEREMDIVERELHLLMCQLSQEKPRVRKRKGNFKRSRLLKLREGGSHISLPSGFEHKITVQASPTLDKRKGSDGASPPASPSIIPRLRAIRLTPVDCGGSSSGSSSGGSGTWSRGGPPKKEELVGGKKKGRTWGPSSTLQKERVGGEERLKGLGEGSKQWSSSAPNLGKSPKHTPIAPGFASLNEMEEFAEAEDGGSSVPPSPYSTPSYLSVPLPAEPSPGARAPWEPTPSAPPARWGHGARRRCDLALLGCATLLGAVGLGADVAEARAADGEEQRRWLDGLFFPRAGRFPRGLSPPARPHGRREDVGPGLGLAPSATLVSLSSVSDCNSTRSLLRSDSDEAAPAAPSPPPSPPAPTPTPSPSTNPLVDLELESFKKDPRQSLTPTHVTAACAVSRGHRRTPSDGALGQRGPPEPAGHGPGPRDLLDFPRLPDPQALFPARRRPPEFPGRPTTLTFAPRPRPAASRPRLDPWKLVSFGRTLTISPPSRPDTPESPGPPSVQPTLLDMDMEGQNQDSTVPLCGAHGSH

As for `CC(C)(C)c1cc(NC(=O)Cc2ccc(-n3cnc4cc(-c5ccc(S(C)(=O)=O)cc5)ccc43)cc2)no1` [NPA101.3], the “ligand-induced VEGFR2 autophosphorylation” value in assay [1] (1.0 nM) is recorded as “reduced”. For the same compound, the “inhibition of ligand-induced VEGFR2 autophosphorylation” value in assay [1] (10.0 nM) is recorded as “virtually total”. The remaining binding at 0.1 µM in assay [2], in assay [3] and in assay [4] was 100% each time.
